K data for six compounds are collected here from ChEMBL document CHEMBL1150015, “Rational design of purine nucleoside phosphorylase inhibitors: Design of 2-(2-Haloethyl) and 2-ethenyl substituted quinazolinone alkylating agents” (Bioorg Med Chem Lett, 1992).

The assay deals with T1, Purine nucleoside phosphorylase (Homo sapiens) (UniProt P00491).
T1 sequence (whole entry): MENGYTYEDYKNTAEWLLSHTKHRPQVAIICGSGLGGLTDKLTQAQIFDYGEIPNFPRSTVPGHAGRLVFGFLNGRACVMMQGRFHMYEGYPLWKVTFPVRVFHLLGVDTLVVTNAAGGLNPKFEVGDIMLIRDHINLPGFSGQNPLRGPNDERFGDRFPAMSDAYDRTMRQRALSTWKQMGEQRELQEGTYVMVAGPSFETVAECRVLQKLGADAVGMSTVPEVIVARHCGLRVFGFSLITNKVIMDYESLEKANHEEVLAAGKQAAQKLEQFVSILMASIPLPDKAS
The assay can be described thus: Second order rate constant for the inactivation of Purine Nucleoside Phosphorylase by compound in 0.05 M Phosphate Buffer and at a pH 7.4 (u=0.1 KCl) at 30.0 degree Centigrade.
The compound `O=C1C=CC(=O)c2c(O)nc(CCBr)nc21` displayed a k of 7.97 M⁻¹ s⁻¹.
To `Nc1nc(O)c2c(n1)C(=O)C=CC2=O` belongs 4.73 M⁻¹ s⁻¹.
In turn, `O=C1C=CC(=O)c2c(O)ncnc21` came in with a k of 1.62 M⁻¹ s⁻¹.
The figure for `O=C1C=CC(=O)c2c(O)nc(-c3ccccc3)nc21` is 15.9 M⁻¹ s⁻¹.
To `C=Cc1nc(O)c2c(n1)C(=O)C=CC2=O` belongs 3.1 M⁻¹ s⁻¹.
The figure for `O=C1C=CC(=O)c2c(O)nc(CBr)nc21` is 3.7 M⁻¹ s⁻¹.
